Source: patent US8207142B2, “Inhibitor of DNA methylation” (priority 2001, dated 2012)

Experiments:
EJ6 tumors = EJ6 tumors in BALB/c nu/nu mice, tumor volume and histology; format: in vivo
Description: (§1) EJ6 cells (5×10^5/injection) were inoculated subcutaneously into the right and left flanks of male BALB/c nu/nu mice at 4-6 weeks of age (available from Harlan, San Diego, Calif.). Zebularine treatments were initiated after macroscopic (50-200 mm 3) tumor formation (4-6 weeks later). Zebularine (500 mg/kg or 1000 mg/kg) was administered daily via intraperitoneal injection or oral gauage feeding over a period of 18 days. Control mice received 0.45% saline administered via intraperitoneal injection or oral gavage feeding over a period of 18 days. Mice (n=30) were divided into five groups (control group, 500 mg/kg intraperitoneal injection, 500 mg/kg oral, 1000 mg/kg intraperitoneal injection, and 1000 mg/kg oral). Each treatment group consisted of a minimum of five animals (at least 6 tumors per group).
Tumor volumes (TV) were measured with calipers and calculated using the following formula: tumor volume=LD^2/2 (where L is the longest diameter and D is the shortest diameter). The relative tumor volume (RTV) was calculated as: RTV=TVn/TVo, where TVn is the calculated volume at day n. Animals were sacrificed 24 hours after the last treatment. Tumors were removed, immediately fixed with neutral buffered formalin and then embedded in OCT compound for frozen sections. The frozen sections were processed and stained with hematoxylin and eosin (H&E). All histological examinations were carried out by light microscopy using a Leica DM LB microscope (Leica Microsystems, Germany).

DNMT1 = molecular target: T1, DNMT1 (Homo sapiens, UniProt P26358); assay: Western blot of DNMT1 level in treated T24 cells; format: cell-based; details: 500 μM for 48 h
T1 construct: protein extracts were isolated from both treated and untreated T24; endogenous in cells; host or cells: T24 human bladder carcinoma cells (ATCC)
T1 sequence (P26358 whole entry): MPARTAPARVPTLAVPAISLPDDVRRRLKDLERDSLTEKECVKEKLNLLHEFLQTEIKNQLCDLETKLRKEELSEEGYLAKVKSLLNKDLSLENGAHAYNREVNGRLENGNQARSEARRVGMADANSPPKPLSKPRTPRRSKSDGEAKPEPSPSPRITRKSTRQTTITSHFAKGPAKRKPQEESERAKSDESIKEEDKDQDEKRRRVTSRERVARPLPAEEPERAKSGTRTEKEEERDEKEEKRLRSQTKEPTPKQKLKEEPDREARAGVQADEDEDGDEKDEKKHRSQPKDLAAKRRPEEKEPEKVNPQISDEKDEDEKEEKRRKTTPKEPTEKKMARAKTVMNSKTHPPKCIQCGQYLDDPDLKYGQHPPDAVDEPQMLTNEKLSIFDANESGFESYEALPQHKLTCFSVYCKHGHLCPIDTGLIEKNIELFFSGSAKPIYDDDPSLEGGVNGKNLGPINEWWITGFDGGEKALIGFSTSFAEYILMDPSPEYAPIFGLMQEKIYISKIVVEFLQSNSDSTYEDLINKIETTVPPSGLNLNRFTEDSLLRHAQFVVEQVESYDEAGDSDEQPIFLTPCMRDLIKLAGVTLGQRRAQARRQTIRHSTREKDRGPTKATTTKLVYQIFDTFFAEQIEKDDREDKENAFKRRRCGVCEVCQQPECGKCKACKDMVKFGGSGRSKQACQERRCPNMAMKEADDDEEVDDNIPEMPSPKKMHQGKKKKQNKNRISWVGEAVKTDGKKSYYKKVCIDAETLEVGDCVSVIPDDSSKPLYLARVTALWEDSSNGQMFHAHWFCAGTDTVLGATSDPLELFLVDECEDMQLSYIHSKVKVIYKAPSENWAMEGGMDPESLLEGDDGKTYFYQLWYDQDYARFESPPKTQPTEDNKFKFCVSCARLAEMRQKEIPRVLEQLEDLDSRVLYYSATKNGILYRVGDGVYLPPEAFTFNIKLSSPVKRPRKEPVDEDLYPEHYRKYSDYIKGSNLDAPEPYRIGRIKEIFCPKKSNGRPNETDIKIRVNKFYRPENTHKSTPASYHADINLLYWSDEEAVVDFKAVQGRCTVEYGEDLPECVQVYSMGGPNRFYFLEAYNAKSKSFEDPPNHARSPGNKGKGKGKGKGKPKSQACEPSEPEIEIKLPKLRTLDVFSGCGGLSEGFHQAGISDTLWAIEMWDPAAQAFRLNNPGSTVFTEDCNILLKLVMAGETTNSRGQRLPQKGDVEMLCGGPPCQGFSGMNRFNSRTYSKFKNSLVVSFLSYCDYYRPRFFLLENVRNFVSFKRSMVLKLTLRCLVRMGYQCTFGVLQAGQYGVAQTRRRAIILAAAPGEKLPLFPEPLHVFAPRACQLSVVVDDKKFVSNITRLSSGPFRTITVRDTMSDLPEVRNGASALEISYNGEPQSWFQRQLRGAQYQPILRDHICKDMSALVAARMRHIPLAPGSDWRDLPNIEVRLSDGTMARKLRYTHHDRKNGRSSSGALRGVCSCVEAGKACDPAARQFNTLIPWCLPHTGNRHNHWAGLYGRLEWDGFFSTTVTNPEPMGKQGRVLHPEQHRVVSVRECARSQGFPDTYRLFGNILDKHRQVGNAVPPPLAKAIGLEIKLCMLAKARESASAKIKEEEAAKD
Description: (§2) The mRNA for DNMT3b3 is the only 3b transcript expressed in T24 cells, and DNMT3a levels could not be assessed because no suitable antibodies against DNMT3a are available. Thus, with reference to FIG. 12, protein extracts were isolated from both treated and untreated T24 (population 3 million cells, treated with 500 μM Zebularine for 48 h), and […] with specific antibodies for DNMT1 and DNMT3b3 as shown in FIG. 12. β-actin was included as a loading control, and the molecular weights of each protein are indicated.

N. crassa = format: cell-based; details: Neurospora crassa, 400 nmoles
Description: Strains with mutations in dim-2 lack all detectable methyltransferase activity. A dim-2 strain (N613) and a wild-type control (N242) were challenged with a high concentration of Zebularine. The concentration of Zebularine is indicated above the plates and was applied to the paper disc as in FIG. 5; no hygromycin was applied to these plates.
Plate tests were performed with solidified medium essentially as previously described (Selker, Proc. Natl. Acad. Sci. USA 95;9430-9435, 1998). In brief, approximately 2,000 N. crassa conidia of the indicated were plated on each plate. Drugs were administered from a 4-mm diameter Whatman™ no. 1 paper disk placed in the middle of each plate shortly after plating.
Strains with mutations in dim-2 lack all detectable methyltransferase activity (Kouzminova and Selker, “Dim-2 encodes a DNA-methyltransferase responsible for all known cytosine methylation in Neurospora,” EMBO J. Aug. 1, 2001). In order to examine whether Zebularine toxicity is mediated by its methyltransferase-inhibitory activity, dim-2 strain (N613) and a wild-type control (N242) were challenged with a high concentration (400 nmoles) of Zebularine. No hygromycin was applied to these plates.

T24 cells [1] = assay: Incorporation of Zebularine into DNA and RNA in T24 cells; format: in vitro ADME, human; details: 10 μM, 1 μCi, 24 hr
Description: FIG. 19 is a bar graph depicting the relative incorporation of Zebularine into DNA and RNA in T24 cells, showing that approximately 7 times the amount of Zebularine is incorporated into RNA as DNA.
Following a similar incubation protocol in T24 cells (Zebularine (10 μM, 1 μCi) for 24 hr, cellular DNA and RNA were isolated by the tri-reagent method according to the manufacture's instructions. Levels of Zebularine and 2′-Deoxyzebularine were determined by measuring total radioactivity in purified RNA and DNA, respectively. The identity of Zebularine and 2′-Deoxyzebularine was accomplished by a reverse phase HPLC analysis of digested RNA and DNA and comparison against authentic standards. In FIG. 19 a bar graph depicts the relative incorporation of Zebularine into DNA and RNA in T24 cells, showing that approximately 7 times the amount of Zebularine is incorporated into RNA as DNA.

T24 cells [2] = assay: Zebularine metabolites in T24 cells (SAX-10 HPLC); format: in vitro ADME, human; details: 6 hr incubation
Description: ZB, ZB-MP, ZB-DP and ZB-TP correspond, respectively, to Zebularine, 5′-mono, 5′-di- and 5′-triphosphate metabolites. There are two unidentified metabolites, indicated by the symbols ?1 and ?2.
Zebularine metabolites were identified after incubation of human bladder cancer cells (T24) in DMEM+10% FCS medium with antibiotics. Zebularine (10 μM, 1 μCi), specific activity 200 DPM/pmole was used in these experiments. At the end of the incubation, cells were extracted with 60% methanol and aliquots were analyzed by SAX-10 HPLC using a methanolwater gradient as follows: 1-5 min 1% MeOH, 5-25 min gradient to 25% MeOH, 25-35 min isocratic with 25% MeOH and back to 1% MeOH after 10 min. The phosphorylated metabolites were identified by comparison with authentic synthetic standards. Using this methodology formation of metabolites as a function of concentration after a 6 hr incubation period was investigated (FIG. 17). The major metabolite formed was the 5′-triphosphate.

DNMT3b3 = molecular target: T2, DNMT3b3 (Homo sapiens, UniProt Q9UBC3); assay: Western blot of DNMT3b3 level in treated T24 cells; format: cell-based; details: 500 μM for 48 h
T2 construct: protein extracts were isolated from both treated and untreated T24; endogenous in cells; host or cells: T24 human bladder carcinoma cells (ATCC)
Description: as §2

[3] = tested on: human p16 cDNA in EJ6 tumor cells; assay: RT-PCR of p16 gene expression in EJ6 tumor cells growing in mice; format: in vivo; details: EJ6 tumor cells in BALB/c nu/nu mice after treatment
Description: Total RNA was isolated from the tumors to analyze gene expression using conventional methods. DNA also was isolated, to measure the methylation status of p16 promoter by Ms-SnuPE as described below.
GAPDH mRNA levels were measured to control for the quantity and integrity of the input RNA. The control group represents tumors obtained from mice mock-treated either with 0.45% NaCl via intraperitoneal injection or oral gavage feeding. Results from one of six similar independent tumors are shown for each group in FIG. 15.

[4] = Body weight of tumor-bearing BALB/c nu/nu mice; format: in vivo
Description: as §1
Similarly, each group of mice (n=5 or 6) was weighed at the indicated time points, and average body weight was plotted against days after initial treatment in FIG. 14.

[5] = tested on: p16 promoter and p16 exon 2; assay: Continuous long-term treatment of T24 cells, methylation of p16 promoter and p16 exon 2; format: cell-based, human; details: 100 μM continuous treatment, Day 14, T24 cells; dropped from ˜96%
[6] = Toxicity (Table 1 summary of characteristics)
[7] = all treated groups: 500 or 1000 mg/kg daily, intraperitoneal or oral, 18 days

O=c1ncccn1[C@@H]1O[C@H](CO)[C@@H](O)[C@H]1O [Zebularine, 1-β-ribofuranosyl-1,2-dihydropyrimidin-2-one]
tumor regression (EJ6 tumors; 1000 mg/kg orally or intraperitoneally, daily, 18 days): tumor regression was observed | tumor growth (relative tumor volume) vs control group (EJ6 tumors; [7]): tumor growth appeared suppressed | ratio of tumor cells to stroma (H&E stained tumor sections), treated versus untreated (EJ6 tumors; tumors removed 24 hours after the last treatment): lower ratio of tumor cells to stroma | level of DNMT1 (DNMT1): significant reduction | region of conidia toxicity around the filter disk, dim-2 vs wild type (N. crassa): roughly equivalent in both dim-2 and wildtype strains | amount incorporated into RNA relative to DNA (T24 cells [1]): approximately 7 times | major metabolite formed (T24 cells [2]): 5′-triphosphate | level of DNMT3b3 (DNMT3b3): significant reduction | p16 gene expression in vivo (RT-PCR) [3]: Reactivation of p16 gene expression | weight loss [4, 7]: weight loss was minimal | greatest weight loss ([4]; group treated with 1000 mg/kg): ~7% | methylation level at maximum demethylation [5]: ~47%

Nc1ncn([C@@H]2O[C@H](CO)[C@@H](O)[C@H]2O)c(=O)n1 [5-Aza-CR, 5-azacytidine, reference compound]
Toxicity [6]: High
